Assay results taken from article PMC6199744, “Development of Chemical Proteomics for the Folateome and Analysis of the Kinetoplastid Folateome” (ACS Infectious Diseases, 2018).
Read-outs that look alike come from different tables or passages of the source.

How the values were obtained:
Type in all cases: binding
[1] = target: T1, HeLa cell extract proteins (Homo sapiens, UniProt O43865)
T1 construct: endogenous in cells; host or cells: HeLa cell extract

[2] = target: T2, HeLa cell extract proteins (Homo sapiens, UniProt Q8N1F7)
T2 construct: endogenous in cells; host or cells: HeLa cell extract
T2 sequence (Q8N1F7 1-819): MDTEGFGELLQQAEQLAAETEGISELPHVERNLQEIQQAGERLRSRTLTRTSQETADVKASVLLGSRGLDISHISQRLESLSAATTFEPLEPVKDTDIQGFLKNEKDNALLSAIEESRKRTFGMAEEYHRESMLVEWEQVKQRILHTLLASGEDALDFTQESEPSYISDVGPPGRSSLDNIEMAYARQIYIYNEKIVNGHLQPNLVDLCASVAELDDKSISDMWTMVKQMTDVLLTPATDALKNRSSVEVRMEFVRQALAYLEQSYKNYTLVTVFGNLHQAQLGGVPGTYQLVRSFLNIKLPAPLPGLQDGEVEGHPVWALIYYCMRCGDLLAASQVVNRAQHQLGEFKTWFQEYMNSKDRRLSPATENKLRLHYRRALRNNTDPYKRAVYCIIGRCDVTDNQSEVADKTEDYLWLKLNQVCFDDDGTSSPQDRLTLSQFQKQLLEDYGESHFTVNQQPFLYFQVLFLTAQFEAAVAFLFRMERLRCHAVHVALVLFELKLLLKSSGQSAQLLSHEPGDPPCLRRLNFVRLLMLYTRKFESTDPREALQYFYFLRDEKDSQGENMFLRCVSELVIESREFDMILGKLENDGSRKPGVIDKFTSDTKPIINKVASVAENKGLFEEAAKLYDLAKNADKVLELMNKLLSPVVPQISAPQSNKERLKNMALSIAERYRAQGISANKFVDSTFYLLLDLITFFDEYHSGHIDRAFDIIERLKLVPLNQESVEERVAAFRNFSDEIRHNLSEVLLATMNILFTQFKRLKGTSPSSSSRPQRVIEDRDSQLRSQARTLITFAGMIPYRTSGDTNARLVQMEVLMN

[3] = target: T3, HeLa cell extract proteins (Homo sapiens, UniProt P04792)
T3 construct: endogenous in cells; host or cells: HeLa cell extract
T3 sequence (P04792 whole entry): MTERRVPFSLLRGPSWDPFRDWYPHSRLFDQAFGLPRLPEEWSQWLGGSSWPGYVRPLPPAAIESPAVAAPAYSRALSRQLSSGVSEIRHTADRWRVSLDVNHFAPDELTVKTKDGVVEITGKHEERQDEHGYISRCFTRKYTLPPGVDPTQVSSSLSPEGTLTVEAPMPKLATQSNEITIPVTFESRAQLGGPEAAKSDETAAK

[4] = target: T4, HeLa cell extract proteins (Homo sapiens, UniProt Q02790)
T4 construct: endogenous in cells; host or cells: HeLa cell extract
T4 sequence (Q02790 1-459): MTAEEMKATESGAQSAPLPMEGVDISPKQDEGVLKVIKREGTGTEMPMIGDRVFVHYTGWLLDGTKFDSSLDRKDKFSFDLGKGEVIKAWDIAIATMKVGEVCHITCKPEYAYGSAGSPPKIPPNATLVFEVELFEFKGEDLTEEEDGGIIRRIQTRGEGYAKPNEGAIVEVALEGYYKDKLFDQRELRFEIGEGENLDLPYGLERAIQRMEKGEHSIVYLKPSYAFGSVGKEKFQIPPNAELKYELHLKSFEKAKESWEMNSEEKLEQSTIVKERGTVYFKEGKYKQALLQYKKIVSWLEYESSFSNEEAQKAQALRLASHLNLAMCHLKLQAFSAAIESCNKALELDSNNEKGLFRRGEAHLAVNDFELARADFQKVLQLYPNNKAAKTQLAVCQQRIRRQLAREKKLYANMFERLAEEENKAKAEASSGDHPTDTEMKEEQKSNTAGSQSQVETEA

[5] = target: T5, HeLa cell extract proteins (Homo sapiens, UniProt P20674)
T5 construct: endogenous in cells; host or cells: HeLa cell extract
T5 sequence (P20674 42-150): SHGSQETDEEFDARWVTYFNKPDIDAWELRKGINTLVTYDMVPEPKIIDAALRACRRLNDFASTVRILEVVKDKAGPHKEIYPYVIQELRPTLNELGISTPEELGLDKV

[6] = target: T6, HeLa cell extract proteins (Homo sapiens, UniProt Q99683)
T6 construct: endogenous in cells; host or cells: HeLa cell extract
T6 sequence (Q99683 1-1374): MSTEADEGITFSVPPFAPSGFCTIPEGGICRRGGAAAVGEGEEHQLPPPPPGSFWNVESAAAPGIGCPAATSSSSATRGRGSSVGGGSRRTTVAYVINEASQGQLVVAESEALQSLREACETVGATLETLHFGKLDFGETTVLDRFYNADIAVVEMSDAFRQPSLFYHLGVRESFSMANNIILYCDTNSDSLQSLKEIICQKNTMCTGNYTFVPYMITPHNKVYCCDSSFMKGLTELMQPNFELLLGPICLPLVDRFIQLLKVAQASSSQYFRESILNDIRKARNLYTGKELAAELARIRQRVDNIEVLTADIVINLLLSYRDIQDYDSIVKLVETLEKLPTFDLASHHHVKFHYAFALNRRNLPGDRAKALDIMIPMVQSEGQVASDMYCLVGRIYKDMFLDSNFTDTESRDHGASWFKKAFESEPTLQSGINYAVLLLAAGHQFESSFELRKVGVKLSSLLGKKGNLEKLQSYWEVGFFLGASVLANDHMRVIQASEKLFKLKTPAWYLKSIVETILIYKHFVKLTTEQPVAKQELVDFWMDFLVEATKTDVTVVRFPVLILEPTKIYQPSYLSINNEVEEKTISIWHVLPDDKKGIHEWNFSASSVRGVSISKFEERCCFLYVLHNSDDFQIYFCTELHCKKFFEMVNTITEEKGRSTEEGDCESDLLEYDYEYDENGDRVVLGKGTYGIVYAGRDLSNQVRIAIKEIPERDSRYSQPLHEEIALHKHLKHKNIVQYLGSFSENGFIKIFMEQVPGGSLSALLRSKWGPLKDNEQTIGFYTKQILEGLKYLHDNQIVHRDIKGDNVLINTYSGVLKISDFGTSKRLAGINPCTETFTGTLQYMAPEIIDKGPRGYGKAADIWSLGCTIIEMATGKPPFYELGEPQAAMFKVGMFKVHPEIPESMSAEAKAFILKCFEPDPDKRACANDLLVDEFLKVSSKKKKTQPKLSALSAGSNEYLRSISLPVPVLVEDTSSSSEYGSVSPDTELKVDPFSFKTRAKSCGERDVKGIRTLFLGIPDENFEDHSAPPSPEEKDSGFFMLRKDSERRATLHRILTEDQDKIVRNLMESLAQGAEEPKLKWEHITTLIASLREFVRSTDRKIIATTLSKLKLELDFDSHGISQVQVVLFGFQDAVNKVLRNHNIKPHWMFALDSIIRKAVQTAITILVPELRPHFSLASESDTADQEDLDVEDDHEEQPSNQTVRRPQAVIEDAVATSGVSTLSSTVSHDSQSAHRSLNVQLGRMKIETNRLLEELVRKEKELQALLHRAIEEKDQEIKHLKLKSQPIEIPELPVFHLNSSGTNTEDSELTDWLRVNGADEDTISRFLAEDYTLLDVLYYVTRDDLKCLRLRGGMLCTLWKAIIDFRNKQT

[7] = HeLa, protein MAP3K5 (MITOGEN-ACTIVATED PROTEIN KINASE KINASE KINASE 5)
[8] = HeLa, protein FKBP4 (FK506-BINDING PROTEIN 4.)

T1 sequence (O43865 whole entry): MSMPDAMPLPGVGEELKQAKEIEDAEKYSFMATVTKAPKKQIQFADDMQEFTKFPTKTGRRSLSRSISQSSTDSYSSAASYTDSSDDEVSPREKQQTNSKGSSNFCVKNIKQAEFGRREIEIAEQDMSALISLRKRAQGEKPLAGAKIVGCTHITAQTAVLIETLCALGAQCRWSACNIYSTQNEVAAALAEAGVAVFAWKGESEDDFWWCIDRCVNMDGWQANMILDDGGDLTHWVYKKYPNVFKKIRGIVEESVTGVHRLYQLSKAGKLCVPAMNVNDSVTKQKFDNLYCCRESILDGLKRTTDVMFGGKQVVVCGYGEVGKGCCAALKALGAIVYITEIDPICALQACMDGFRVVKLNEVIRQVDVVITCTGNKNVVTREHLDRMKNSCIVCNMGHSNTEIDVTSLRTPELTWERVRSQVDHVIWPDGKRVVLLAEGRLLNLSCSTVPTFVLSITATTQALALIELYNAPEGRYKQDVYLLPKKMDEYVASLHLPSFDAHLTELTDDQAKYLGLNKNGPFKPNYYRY

**Q.** Nc1nc2c(c(=O)[nH]1)N(C=O)C(CNc1ccc(C(=O)N[C@@H](CCC(=O)O)C(=O)O)cc1)CN2 (stereo partly drawn) [LEU, leucovorin] was tested. Which “fold changes relative to vehicle control” value ([1]; HeLa, captured protein AHCYL1) did it give?
**A.** 1.12

**Q.** What about the “fold changes relative to vehicle control” value ([2]; protein NUP93, HeLa) of the same compound?
**A.** 0.84

**Q.** And the “fold changes relative to vehicle control” value ([3]; HeLa, protein HSPB1)?
**A.** 1.01

**Q.** What about the “fold changes relative to vehicle control” value ([4]; HeLa, protein FKBP4) of the same compound?
**A.** 1.01

**Q.** What about the “fold changes relative to vehicle control” value ([5]; HeLa, captured protein COX5A) of the same compound?
**A.** 1.23

**Q.** What about the “fold changes relative to vehicle control” value [6, 7] of the same compound?
**A.** 1.13

**Q.** How did the “fold changes relative to vehicle control” value [1] turn out when Nc1nc2[nH]cc(CCc3ccc(C(=O)N[C@@H](CCC(=O)O)C(=O)O)cc3)c2c(=O)[nH]1 [PTX, pemetrexed] was run?
**A.** 1.08

**Q.** And the “fold changes relative to vehicle control” value [2]?
**A.** 0.91

**Q.** What about the “fold changes relative to vehicle control” value [3] of the same compound?
**A.** 1

**Q.** And the “fold changes relative to vehicle control” value [4]?
**A.** 1.18

**Q.** What about the “fold changes relative to vehicle control” value [5] of the same compound?
**A.** 1.5

**Q.** And the “fold changes relative to vehicle control” value [6]?
**A.** 1.18

**Q.** What does the source list for CCCCCCOc1ccc(Cc2cnc(N)nc2N)cc1 [compound 1]?
**A.** fold changes relative to vehicle control ([1]; protein AHCYL1, HeLa): 1.1; fold changes relative to vehicle control ([2]; captured protein NUP93, HeLa): 0.87; fold changes relative to vehicle control ([3]; protein HSPB1, HeLa): 1.09; fold changes relative to vehicle control [4, 8]: 1.48 fold; fold changes relative to vehicle control ([5]; captured protein COX5A, HeLa): 0.98; fold changes relative to vehicle control ([6]; HeLa, protein MAP3K5): 1.03

**Q.** Which results are given for CCCCCCOc1cccc(Cc2cnc(N)nc2N)c1 [compound 2]?
**A.** fold changes relative to vehicle control ([1]; protein AHCYL1, HeLa): 1.59; fold changes relative to vehicle control ([2]; captured protein NUP93, HeLa): 0.96; fold changes relative to vehicle control ([3]; protein HSPB1, HeLa): 1.38; fold changes relative to vehicle control [4, 8]: 2.28 fold; fold changes relative to vehicle control ([5]; captured protein COX5A, HeLa): 0.91; fold changes relative to vehicle control ([6]; HeLa, protein MAP3K5): 1.14

**Q.** What does the source list for Nc1nc2cccc(-c3ccccc3)c2n1Cc1ccc(Cl)c(Cl)c1 [compound 3]?
**A.** fold changes relative to vehicle control ([1]; protein AHCYL1, HeLa): 0.94; fold changes relative to vehicle control ([2]; captured protein NUP93, HeLa): 0.96; fold changes relative to vehicle control ([3]; protein HSPB1, HeLa): 0.88; fold changes relative to vehicle control [4, 8]: 1.05 fold; fold changes relative to vehicle control ([5]; captured protein COX5A, HeLa): 1.18; fold changes relative to vehicle control ([6]; HeLa, protein MAP3K5): 1.1

**Q.** For NCCOCCOCC(=O)Nc1nc2ncc(CNc3ccc(C(=O)NC(CCC(=O)O)C(=O)O)cc3)nc2c(=O)[nH]1 (stereo not drawn) [compound 6], which “fold changes relative to vehicle control” value ([1]; HeLa, captured protein AHCYL1) is on record?
**A.** 1.25

**Q.** And the “fold changes relative to vehicle control” value ([2]; protein NUP93, HeLa)?
**A.** 1.01

**Q.** And the “fold changes relative to vehicle control” value ([3]; HeLa, protein HSPB1)?
**A.** 1.07

**Q.** And the “fold changes relative to vehicle control” value ([4]; HeLa, protein FKBP4)?
**A.** 1.4

**Q.** What about the “fold changes relative to vehicle control” value ([5]; HeLa, captured protein COX5A) of the same compound?
**A.** 1.87

**Q.** And the “fold changes relative to vehicle control” value [6, 7]?
**A.** 1.12

**Q.** What does the source list for NCCCNc1ccc(C(=O)NC(CCC(=O)O)C(=O)O)cc1 (stereo not drawn) [compound 7]?
**A.** fold changes relative to vehicle control ([1]; HeLa, captured protein AHCYL1): 1.03; fold changes relative to vehicle control ([2]; protein NUP93, HeLa): 0.9; fold changes relative to vehicle control ([3]; HeLa, protein HSPB1): 0.94; fold changes relative to vehicle control ([4]; HeLa, protein FKBP4): 1.05; fold changes relative to vehicle control ([5]; HeLa, captured protein COX5A): 1.63; fold changes relative to vehicle control [6, 7]: 1.09
